Results on six compounds are retold here after ChEMBL document CHEMBL1687869, “Cycloartane triterpenes isolated from Combretum quadrangulare in a screening program for death-receptor expression enhancing activity” (2011).

Active and inactive are the calls of the source. The calls are words filed in the database; no cut-off is given here.

Test [1] deals with Tumor necrosis factor receptor superfamily member 10B (Homo sapiens) (UniProt O14763). Nature of the test: Increase in DR5 promoter activity in SacI gene expressing human DLD1 cells at 17.5 to 70 uM after 24 hrs by luciferase reporter gene assay relative to control. Particulars: DLD-1. It is filed as cell-based. Background: Reporter assays use an easily measured gene product as a stand-in for the process of interest.
Tumor necrosis factor receptor superfamily member 10B (Homo sapiens), sequence (O14763 whole entry): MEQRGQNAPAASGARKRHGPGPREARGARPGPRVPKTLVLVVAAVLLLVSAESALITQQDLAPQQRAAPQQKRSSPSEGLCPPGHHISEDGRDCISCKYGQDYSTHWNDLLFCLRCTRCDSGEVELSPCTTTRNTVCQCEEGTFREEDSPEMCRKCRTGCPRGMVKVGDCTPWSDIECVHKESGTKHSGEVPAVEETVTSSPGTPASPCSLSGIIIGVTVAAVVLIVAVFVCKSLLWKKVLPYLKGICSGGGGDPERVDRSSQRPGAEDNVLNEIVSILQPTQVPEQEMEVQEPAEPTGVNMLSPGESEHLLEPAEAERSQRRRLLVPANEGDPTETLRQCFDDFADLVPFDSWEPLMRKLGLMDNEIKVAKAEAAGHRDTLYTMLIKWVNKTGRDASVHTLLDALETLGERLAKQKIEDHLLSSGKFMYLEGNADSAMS

For test [2], the system named is AGS. Nature of the test: Cytotoxicity against TRAIL-resistant human AGS cells assessed as cell viability at 17.5 uM after 24 hrs by fluorometric microculture assay. The settings on record: read-out: Activity. It is filed as functional.
The target of test [3] is Tumor necrosis factor receptor superfamily member 10B (Homo sapiens) (UniProt O14763). Nature of the test: Increase in DR5 promoter activity in SacI gene expressing human DLD1 cells at 17.5 uM after 24 hrs by luciferase reporter gene assay relative to control. Particulars: DLD-1. The test is classed as cell-based.
Test [4] concerns AGS. Nature of the test: Cytotoxicity against TRAIL-resistant human AGS cells assessed as cell viability at 17.5 uM after 24 hrs by fluorometric microculture assay in presence of 100 ng/ml TRAIL. It is filed as functional.
For test [5], the system named is AGS. Nature of the test: Cytotoxicity against TRAIL-resistant human AGS cells assessed as cell viability at 12.5 uM after 24 hrs by fluorometric microculture assay in presence of 100 ng/ml TRAIL. The test is classed as functional.

Compound `C=C(C)[C@@H](O)CC[C@@H](C)[C@H]1CC[C@@]2(C)[C@@H]3[C@@H](OC(C)=O)C[C@H]4[C@](C)(C(=O)O)[C@@H](O)CC[C@@]45C[C@@]35CC[C@]12C` gave a fold change (FC) in test [1] of 1.7. With `COC(C)(C)/C=C/C[C@@H](C)[C@H]1CC[C@@]2(C)[C@@H]3[C@@H](O)C[C@H]4C(C)(C)C(=O)CC[C@@]45C[C@@]35CC[C@]12C`, the fold change (FC) in test [1] amounted to 2.5. For the compound `O=c1cc(-c2ccc(O)c(O)c2)oc2cc(O)cc(O)c12` [LUTEOLIN], the viability at 17.5 µM with AGS [2] came out at 51%. For the same compound, in test [3], the result was Active. As for `COc1c(O)cc(-c2oc3cc(O)cc(O)c3c(=O)c2OC)cc1O`, the fold change (FC) in test [1] was 2. As to `COc1ccc(-c2oc3cc(O)cc(O)c3c(=O)c2OC)cc1O`, the Activity in the test on AGS [4] was determined as 24%; with AGS [5], 27%. Besides, the fold change (FC) in test [1] is 6.7.

In turn, `COc1cc(-c2oc3cc(O)cc(O)c3c(=O)c2OC)cc(O)c1OC` had a fold change (FC) in test [1] of 2.2.
